Laboratory results: patent publication US7674887B2, “Thrombopoietin mimetics” (GlaxoSmithKline LLC, priority 2000, dated 2010)

Key:
[1] = system: human UT7TPO cell line; test: Proliferation assay using the human UT7TPO cell line; assay type: cell-based; details: UT7TPO cells
From the text: Proliferation Assay Some of the more preferred compounds of this invention were active in an in vitro proliferation assay using the human UT7TPO cell line. UT7TPO cells are a human megakaryoblastic cell line that express Tpo-R, whose survival and growth is dependent on the presence of TPO (Komatsu et al. Blood 1996, 87,4552).

melting point | SMILES | EC50 ([1]; Homo sapiens, UT7/TPO) | activity relative to TPO in the proliferation assay [1]
– | CC1=NN(c2ccc(C)c(C)c2)C(=O)C1=NNc1cccc(-c2cccc(C(=O)O)c2)c1O [Example 3, 3′-{N′-[1-(3,4-dimethylphenyl)-3-methyl-5-oxo-1,5-dihydropyrazol-4-ylidene]hydrazino}-2′-hydroxybiphenyl-3-carboxylic acid] | 30 nM | 100 % TPO
145 °C (dec.) | CC1=NN(c2ccc(C(C)(C)C)cc2)C(=O)C1=NNc1cccc(-c2cccc(C(=O)O)c2)c1O (hydrate or solvate) [Example 4, 3′-{N′-[1-(4-tert-butylphenyl)-3-methyl-5-oxo-1,5-dihydropyrazol-4-ylidene]hydrazino}-2′-hydroxybiphenyl-3-carboxylic acid] | – | –
282 °C (dec.) | CC1=NN(c2ccc(C)c(C)c2)C(=O)C1=NNc1ccc(-c2cccc(C(=O)O)c2)cc1O [Example 2, 4′-{N′-[1-(3,4-dimethylphenyl)-3-methyl-5-oxo-1,5-dihydropyrazol-4-ylidene]hydrazino}-3′-hydroxybiphenyl-3-carboxylic acid] | – | –
210 °C (dec.) | Cc1ccc(N2N=C(Cl)C(=NNc3cccc(-c4cccc(C(=O)O)c4)c3O)C2=O)cc1C [Example 24, 3′-{N′-[3-Chloro-1-(3,4-dimethylphenyl)-5-oxo-1,5-dihydropyrazol-4-ylidene]hydrazino}-2′-hydroxybiphenyl-3-carboxylic acid] | – | –
280 °C (dec.) | CC1=NN(c2ccc(C)c(C)c2)C(=O)C1=NNc1ccc(-c2ccc(C(=O)O)cc2)cc1O (hydrate or solvate) [Example 1, 4′-{N′-[1-(3,4-dimethylphenyl)-3-methyl-5-oxo-1,5-dihydropyrazol-4-ylidene]hydrazino}-3′-hydroxybiphenyl-4-carboxylic acid] | – | –
